Measurements published in PubChem BioAssay (NCI).
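96-well plates; 48 h exposure; 5 concentrations. Endpoints by linear interpolation between flanking doses. Not reached: highest tested concentration assigned. Here, GI50 denotes the concentration required for 50% inhibition of growth. The concentration for full growth arrest is given as TGI.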

Columns and labels:
Experiment in all cases: DTP human tumour cell line panel, 48 h
CAKI-1 renal = tested on: CAKI-1 renal
SK-OV-3 ovarian = tested on: SK-OV-3 ovarian
MOLT-4 leukemia = tested on: MOLT-4 leukemia
HL-60(TB) leukemia = tested on: HL-60(TB) leukemia
A498 renal = tested on: A498 renal
OVCAR-3 ovarian = tested on: OVCAR-3 ovarian
786-0 renal = tested on: 786-0 renal
UACC-257 melanoma = tested on: UACC-257 melanoma
COLO 205 colon = tested on: COLO 205 colon
SK-MEL-2 melanoma = tested on: SK-MEL-2 melanoma

Row | Compound | TGI (CAKI-1 renal) [µM] | TGI (SK-OV-3 ovarian) [µM] | TGI (MOLT-4 leukemia) [µM] | TGI (HL-60(TB) leukemia) [µM] | TGI (A498 renal) [µM] | TGI (OVCAR-3 ovarian) [µM] | TGI (786-0 renal) [µM] | TGI (UACC-257 melanoma) [µM] | TGI (COLO 205 colon) [µM] | TGI (SK-MEL-2 melanoma) [µM] | GI50 (CAKI-1 renal) [µM] | GI50 (SK-OV-3 ovarian) [µM] | GI50 (MOLT-4 leukemia) [µM] | GI50 (SK-MEL-2 melanoma) [µM] | GI50 (HL-60(TB) leukemia) [µM] | GI50 (A498 renal) [µM] | GI50 (OVCAR-3 ovarian) [µM] | GI50 (786-0 renal) [µM] | GI50 (UACC-257 melanoma) [µM] | GI50 (COLO 205 colon) [µM]
1 | COC(=O)C1=Cc2cc(OC)c(OC)c(OC)c2[C@H](c2cc(OC)c(OC)c(OC)c2)C1C(=O)OC (some centres undefined) | > 100 | > 100 | > 100 | > 100 | > 100 | > 100 | > 100 | > 100 | > 100 |  |  |  |  |  |  |  |  |  |  | 
2 | Cc1c(O)c2ccccc2oc1=O | > 100 |  | > 100 | > 100 | > 100 | > 100 | > 100 | > 100 | > 100 | > 100 |  |  |  |  |  |  |  |  |  | 
3 | Nc1c(C(=O)c2ccc(-c3cccnc3)cc2)cnn1-c1ccc(F)cc1 | > 25 | > 23 | > 25 | > 25 | > 25 | > 25 | > 25 | > 25 | > 25 | > 25 | > 25 | > 14.2 | > 25 | > 25 | > 13.8 | > 18.8 | > 22.8 | > 18.4 | > 22.4 | > 21.9
4 | O=C(c1ccco1)c1nc2cc(C(F)(F)F)ccc2nc1C(F)(F)F | > 100 | > 100 | > 100 | 69.2 | > 100 | > 100 | > 100 | > 100 | > 100 | > 100 | > 100 | > 100 | > 100 | > 100 | 22.2 | > 100 | > 100 | > 100 | > 100 | > 100
5 | CCOC(=O)c1ccc(Nc2sc(C(=O)c3ccc(Br)cc3)c(N)c2C#N)cc1 | > 100 | > 100 | > 100 | > 25.2 | 6.02 | 2.19 | > 100 | > 100 | 2.47 | > 100 | 1.73 | 1.04 | 4.61 | 1.27 | 0.421 | 0.321 | 0.364 | 1.99 | 6.19 | 0.675
6 | CN1CCC(COc2cnc(-c3cccc(Cn4nc(-c5cccc(C#N)c5)ccc4=O)c3)nc2)CC1 | 13.8 | 18.5 | 6.62 | 4.02 | 20.6 | 6.06 | 3.86 | 3.52 | 3.68 | 15.1 | 3.15 | 5.93 | 2.53 | 6.66 | 2 | 7.2 | 2.45 | 1.97 | 1.81 | 1.92
7 | C=C(C)[C@@H]1CC[C@]2(COCCC#N)CC[C@]3(C)[C@H](CC[C@@H]4[C@@](C)(CCCNCCC#N)[C@H](C(=C)C)CC[C@]43C)[C@@H]12 | 15.6 | > 50 | 25 | 20.5 | > 50 | 22.4 | 30.1 | > 50 | > 50 | 25.4 | 7.13 | > 50 | 7.72 | 10.7 | 8.47 | > 50 | 9.66 | 10.6 | 19.8 | 14.6
8 | C=C=C(C(=O)OC)S(=O)c1ccccc1[N+](=O)[O-] (centres undefined) | > 100 | > 100 | > 100 | > 100 | > 100 | > 100 | > 100 | > 100 | > 100 | > 100 |  |  |  |  |  |  |  |  |  | 
9 | CN(C)c1ccc(/C=C/C(=O)[O-])cc1.CN(C)c1ccc(/C=C/C(=O)[O-])cc1.[Cu+2] | > 100 | > 95 | > 100 | > 100 | > 86.4 | > 100 | > 100 | > 100 | > 100 | > 100 |  |  |  |  |  |  |  | 59.5 |  | 
10 | Cc1cc([N+](=O)[O-])ccc1Sc1c2ccccc2nc2cc(Cl)ccc12 | 84 | > 100 | 93.7 | 51 | > 100 | > 100 | > 100 | > 100 | > 100 | > 100 |  |  |  |  |  |  |  |  |  | 
11 | Nc1c(-c2cn(Cc3ccccc3)c3ccccc23)[n+]([O-])c2ccccc2[n+]1[O-] | 68 | 95.3 | 92.3 | 42.6 | 41.9 | 68.4 | > 100 | 35.5 | > 100 | 57 |  |  |  |  |  |  |  |  |  | 
12 | O=C1CC[C@H](N2C(=O)c3cccc4c(Cc5ccc(CN6CCOCC6)cc5)ccc2c34)C(=O)N1 | > 100 | > 100 | > 100 | > 100 | > 100 | > 100 | > 100 | > 100 | > 100 | > 100 | 62.1 | > 100 | 27.6 | > 100 | 24.1 | > 100 | 65.6 | > 100 | 22.5 | 45.8
13 | Cc1cccc(-c2[nH]ncc2-c2ccc3ncccc3n2)n1 | > 25 | > 25 | > 25 | > 23.7 | > 25 | > 25 | > 25 | > 25 | 16.7 | > 25 | > 19 | > 21.9 | 14.2 | 10.7 | 10 | > 14.1 | 14.4 | 11.1 | > 21.3 | 6.31
14 | Cc1ccc(NC(=O)c2ccc(CN3CCN(C)CC3)cc2)cc1Nc1nccc(-c2cccnc2)n1 | 67 | 80.9 | 41.4 | 35.9 | 39.2 | 72.9 | 33.6 | 38.5 | 40.5 | 54.8 | 30.3 | 28.7 | 5.11 | 22.1 | 16 | 20.6 | 31.1 | 16.1 | 17.1 | 16.7
15 | C=C(C)C1CC/C(C)=C/CCC2(C)OC2CC/C(CO)=C\C1O (centres undefined) | > 100 | > 100 | > 100 | > 100 | > 100 | > 100 | > 100 | > 100 | > 100 | > 100 |  |  |  |  |  |  |  |  |  | 
